Measured values: ChEMBL document CHEMBL4330107, “Synthesis and biological evaluation of 3-aryl-4-indolyl-maleimides as potent mutant isocitrate dehydrogenase-1 inhibitors” (Bioorg Med Chem, 2019)
Calls of active or inactive are those of the source. The calls are words filed in the database; no cut-off is given here.

Columns and labels:
Hexokinase-4 = molecular target: T1, Hexokinase-4 (Homo sapiens, UniProt P35557); assay: Inhibition of recombinant human N-terminal GST-fused glucokinase expressed in Escherichia coli using […] by spectrophotometric assay
T1 sequence (P35557 whole entry): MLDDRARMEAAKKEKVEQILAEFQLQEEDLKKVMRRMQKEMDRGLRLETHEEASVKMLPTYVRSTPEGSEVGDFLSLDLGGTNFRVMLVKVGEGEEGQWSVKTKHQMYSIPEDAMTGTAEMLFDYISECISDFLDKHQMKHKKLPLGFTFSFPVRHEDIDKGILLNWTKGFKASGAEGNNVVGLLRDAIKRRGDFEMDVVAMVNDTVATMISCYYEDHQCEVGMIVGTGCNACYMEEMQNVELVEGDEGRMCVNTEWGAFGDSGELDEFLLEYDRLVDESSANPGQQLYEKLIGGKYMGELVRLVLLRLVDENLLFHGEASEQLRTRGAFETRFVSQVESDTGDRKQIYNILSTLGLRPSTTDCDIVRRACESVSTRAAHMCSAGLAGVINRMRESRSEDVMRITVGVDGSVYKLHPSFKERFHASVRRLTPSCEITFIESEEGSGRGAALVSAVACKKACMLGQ

[1] = molecular target: T2, Isocitrate dehydrogenase [NADP], mitochondrial (Homo sapiens, UniProt P48735); assay: Inhibition of recombinant human N-terminal GST-fused wild-type IDH2 using sodium (D)-isocitrate as substrate preincubated for 15 mins followed by substrate addition by fluorescence assay
T2 sequence (P48735 whole entry): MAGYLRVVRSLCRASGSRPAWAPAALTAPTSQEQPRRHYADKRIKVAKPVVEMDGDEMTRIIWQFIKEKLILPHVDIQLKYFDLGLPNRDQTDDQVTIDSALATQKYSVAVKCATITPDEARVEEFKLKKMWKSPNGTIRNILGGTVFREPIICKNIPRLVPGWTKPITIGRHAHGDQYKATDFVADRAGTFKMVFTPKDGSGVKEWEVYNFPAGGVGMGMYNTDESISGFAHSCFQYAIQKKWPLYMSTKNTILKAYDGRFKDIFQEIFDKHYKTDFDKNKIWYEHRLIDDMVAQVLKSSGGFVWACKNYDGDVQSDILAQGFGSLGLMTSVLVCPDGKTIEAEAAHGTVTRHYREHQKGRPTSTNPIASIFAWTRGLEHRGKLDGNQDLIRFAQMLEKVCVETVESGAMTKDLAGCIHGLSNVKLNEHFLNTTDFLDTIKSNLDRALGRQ

[2] = molecular target: Isocitrate dehydrogenase [NADP] cytoplasmic (Homo sapiens, UniProt O75874, R132L); assay: Inhibition of recombinant human N-terminal GST-fused IDH1 R132L mutant expressed in Escherichia coli using alpha-ketoglutarate as substrate preincubated for 15 mins followed by substrate addition
Isocitrate dehydrogenase [NADP] cytoplasmic (Homo sapiens, UniProt O75874, R132L), sequence (O75874 2-414 R132L limits assumed): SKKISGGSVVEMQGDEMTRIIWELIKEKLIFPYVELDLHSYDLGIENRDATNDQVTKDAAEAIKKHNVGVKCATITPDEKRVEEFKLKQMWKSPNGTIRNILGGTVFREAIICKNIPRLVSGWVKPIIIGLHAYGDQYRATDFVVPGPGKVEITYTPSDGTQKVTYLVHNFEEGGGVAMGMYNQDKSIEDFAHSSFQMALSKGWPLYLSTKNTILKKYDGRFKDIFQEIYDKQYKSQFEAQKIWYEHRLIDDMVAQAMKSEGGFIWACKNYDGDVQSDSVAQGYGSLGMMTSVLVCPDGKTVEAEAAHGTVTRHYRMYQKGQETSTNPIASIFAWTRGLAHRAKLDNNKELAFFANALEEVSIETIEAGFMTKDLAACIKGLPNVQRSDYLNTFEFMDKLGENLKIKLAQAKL

[3] = molecular target: Isocitrate dehydrogenase [NADP] cytoplasmic (Homo sapiens, UniProt O75874, R132C); assay: Inhibition of recombinant human N-terminal GST-fused IDH1 R132C mutant expressed in Escherichia coli using alpha-ketoglutarate as substrate preincubated for 15 mins followed by substrate addition
Isocitrate dehydrogenase [NADP] cytoplasmic (Homo sapiens, UniProt O75874, R132C), sequence (O75874 2-414 R132C limits assumed): as the sequence (O75874 2-414 R132L limits assumed) above, with L131C counted along it

[4] = tested on: Isocitrate dehydrogenase [NADP] cytoplasmic (Homo sapiens), O75874 [R132H]; assay: Inhibition of human IDH1 R132H mutant expressed in human U87MG cells assessed as reduction in 2-HG production at 5 to 20 uM after 48 hrs by LC-MS/MS analysis; format: cell-based
Isocitrate dehydrogenase [NADP] cytoplasmic (Homo sapiens), O75874 [R132H], sequence (O75874 whole entry R132H, the tested form may be a part): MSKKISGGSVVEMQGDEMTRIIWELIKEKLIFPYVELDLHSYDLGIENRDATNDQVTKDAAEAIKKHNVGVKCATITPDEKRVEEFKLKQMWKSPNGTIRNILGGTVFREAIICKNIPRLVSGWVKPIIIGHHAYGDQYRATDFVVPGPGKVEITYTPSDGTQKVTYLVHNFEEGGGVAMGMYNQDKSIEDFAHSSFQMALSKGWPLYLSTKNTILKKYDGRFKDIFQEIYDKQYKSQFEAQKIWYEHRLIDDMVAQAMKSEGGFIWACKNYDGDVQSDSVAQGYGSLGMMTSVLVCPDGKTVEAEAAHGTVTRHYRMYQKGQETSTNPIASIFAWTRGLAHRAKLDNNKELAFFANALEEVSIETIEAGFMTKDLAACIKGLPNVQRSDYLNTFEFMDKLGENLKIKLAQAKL

[5] = molecular target: Isocitrate dehydrogenase [NADP] cytoplasmic (Homo sapiens, UniProt O75874); assay: Inhibition of recombinant human N-terminal GST-fused wild-type IDH1 using sodium (D)-isocitrate as substrate by fluorescence assay
Isocitrate dehydrogenase [NADP] cytoplasmic (Homo sapiens, UniProt O75874), sequence (O75874 whole entry, the tested form may be a part): as the sequence (O75874 whole entry R132H, the tested form may be a part) above, with H132R counted along it

[6] = Inhibition of Fructose-1,6-bisphosphatase expressed in Escherichia coli BL21 (DE3) by glucose-6-phosphate dehydrogenase/phosphoglucoisomerase coupled spectrophotometric method; parameters: species or system Corynebacterium glutamicum
[7] = Inhibition of bovine GDH using L-glutamate as substrate measured after 1 hr; parameters: species or system Bos taurus
[8] = molecular target: Isocitrate dehydrogenase [NADP] cytoplasmic (Homo sapiens, UniProt O75874, R132H); assay: Inhibition of recombinant human N-terminal GST-fused IDH1 R132H mutant expressed in Escherichia coli using alpha-ketoglutarate as substrate preincubated for 15 mins followed by substrate addition
Isocitrate dehydrogenase [NADP] cytoplasmic (Homo sapiens, UniProt O75874, R132H), sequence (O75874 2-414 R132H limits assumed): as the sequence (O75874 2-414 R132L limits assumed) above, with L131H counted along it

[9] = tested on: Isocitrate dehydrogenase [NADP] cytoplasmic (Homo sapiens), O75874 [R132H]; assay: Inhibition of recombinant human N-terminal GST-fused IDH1 R132H mutant expressed in Escherichia coli at 20 ug/ml using alpha-ketoglutarate as substrate preincubated for 15 mins followed by substrate addition relative to control
[10] = tested on: Isocitrate dehydrogenase [NADP] cytoplasmic (Homo sapiens), O75874 [R132H]; assay: Inhibition of human IDH1 R132H mutant expressed in human U87MG cells assessed as reduction in 2-HG production after 48 hrs by LC-MS/MS analysis; format: cell-based
[11] = tested on: Isocitrate dehydrogenase [NADP] cytoplasmic (Homo sapiens), O75874 [R132H]; assay: Inhibition of IDH1 R132H mutant in human TF1 cells assessed as reversal of cell differentiation block by measuring increase in HBG mRNA expression at 5 to 10 uM after 7 days by RT-qPCR analysis; format: cell-based

Cn1nc(C2=C(c3cn(CCCn4ccnc4)c4ccccc34)C(=O)NC2=O)c2cccnc21
IC50 (Hexokinase-4): > 20 µM | IC50 [1]: > 20 µM | IC50 [2]: 0.398 µM | IC50 [3]: 0.386 µM | inhibition [4]: inactive | IC50 [5]: > 20 µM | IC50 [6]: > 20 µM | IC50 [7]: > 20 µM | IC50 [8]: 0.05 µM

Cc1ccccc1C(C(=O)NC1CCCCC1)N(C(=O)Cn1ccnc1C)c1cccc(F)c1 (stereo not given)
IC50 (Hexokinase-4): > 20 µM | IC50 [1]: > 20 µM | IC50 [2]: 0.186 µM | IC50 [3]: 0.227 µM | IC50 [5]: > 20 µM | IC50 [6]: > 20 µM | IC50 [7]: > 20 µM | IC50 [8]: 0.02 µM

CCn1nc(C2=C(c3cn(CCCn4ccnc4)c4ccccc34)C(=O)NC2=O)c2cccnc21
IC50 [8]: 0.23 µM

Cn1nc(C2=C(c3c[nH]c4ccccc34)C(=O)NC2=O)c2cccnc21
inhibition [9]: 38.1%

COc1ccc2c(c1)c(C1=C(c3nn(C)c4ncccc34)C(=O)NC1=O)cn2CCCn1ccnc1
IC50 [8]: 13.6 µM

COc1ccc2c(C3=C(c4nn(C)c5ncccc45)C(=O)NC3=O)cn(CCCn3ccnc3)c2c1
IC50 [8]: 0.19 µM

Cn1nc(C2=C(c3cn(CCn4ccnc4)c4ccccc34)C(=O)NC2=O)c2cccnc21
IC50 [8]: 4.42 µM

Cn1nc(C2=C(c3cn(CCCn4ccnc4)c4ccccc34)C(=O)NC2=O)c2ccccc21
IC50 [8]: 1.54 µM

Cn1nc(C2=C(c3cn(CCCn4ccnc4)c4cccc(Br)c34)C(=O)NC2=O)c2cccnc21
IC50 [8]: 0.93 µM

Cc1cccc2c(C3=C(c4nn(C)c5ncccc45)C(=O)NC3=O)cn(CCCn3ccnc3)c12
IC50 [8]: 0.29 µM

Cn1nc(C2=C(c3cn(CCCn4ccnc4)c4cc(F)ccc34)C(=O)NC2=O)c2cccnc21
IC50 (Hexokinase-4): > 20 µM | IC50 [1]: > 20 µM | IC50 [2]: 0.246 µM | inhibition [10]: Dose-dependent effect | IC50 [3]: 0.334 µM | IC50 [5]: > 20 µM | IC50 [6]: > 20 µM | IC50 [7]: > 20 µM | IC50 [8]: 0.09 µM

Cc1ccc2c(C3=C(c4nn(C)c5ncccc45)C(=O)NC3=O)cn(CCCn3ccnc3)c2c1
IC50 (Hexokinase-4): > 20 µM | IC50 [1]: > 20 µM | IC50 [2]: 0.189 µM | inhibition [10]: Dose-dependent effect | IC50 [3]: 0.483 µM | IC50 [5]: > 20 µM | IC50 [6]: > 20 µM | IC50 [7]: > 20 µM | IC50 [8]: 0.06 µM

Cn1nc(C2=C(c3cn(CCCn4cncn4)c4ccccc34)C(=O)NC2=O)c2cccnc21
IC50 [8]: 11.9 µM

O=C1NC(=O)C(n2ccc3cnccc32)=C1c1cn(CCCn2ccnc2)c2ccccc12
IC50 [8]: 3.72 µM

Cn1cc(C2=C(c3nn(CCCn4ccnc4)c4ncccc34)C(=O)NC2=O)c2ccccc21
IC50 [8]: 1.28 µM

Cn1nc(C2=C(c3cn(CCCn4ccnc4)c4cc(Br)ccc34)C(=O)NC2=O)c2cccnc21
IC50 (Hexokinase-4): > 20 µM | IC50 [1]: > 20 µM | IC50 [2]: 0.192 µM | inhibition [10]: Dose-dependent effect | IC50 [3]: 0.46 µM | IC50 [5]: > 20 µM | IC50 [6]: > 20 µM | IC50 [7]: > 20 µM | inhibition [11]: Active | IC50 [8]: 0.06 µM

CCCCn1nc(C2=C(c3cn(CCCn4ccnc4)c4ccccc34)C(=O)NC2=O)c2cccnc21
IC50 [8]: 0.95 µM

Cn1nc(C2=C(c3cn(CCCO)c4ccccc34)C(=O)NC2=O)c2cccnc21
IC50 [8]: 39.6 µM

Cn1nc(C2=C(c3cn(CCCn4ccnc4)c4ccc(Br)cc34)C(=O)NC2=O)c2cccnc21
IC50 [8]: 5 µM

Cn1cc(C2=C(c3nn(CCCN4CCOCC4)c4ncccc34)C(=O)NC2=O)c2ccccc21
inhibition [9]: 17.3%

Cn1nc(C2=C(c3cn(CCCN4CCOCC4)c4ccccc34)C(=O)NC2=O)c2cccnc21
inhibition [9]: 7.36%

O=C1NC(=O)C(c2cn(CCCn3ccnc3)c3ccccc23)=C1c1coc2ncccc12
IC50 [8]: 2.22 µM

Cn1nc(C2=C(c3cn(CCCn4ccnc4)c4ccc(F)cc34)C(=O)NC2=O)c2cccnc21
IC50 [8]: 0.81 µM

O=C1NC(=O)C(n2ccc3ccncc32)=C1c1cn(CCCn2ccnc2)c2ccccc12
IC50 [8]: 1.45 µM

O=C1NC(=O)C(n2nnc3ccccc32)=C1c1cn(CCCn2ccnc2)c2ccccc12
IC50 [8]: 1.4 µM

CN1C(=O)C(c2cn(CCCn3ccnc3)c3ccccc23)=C(c2nn(C)c3ncccc23)C1=O
IC50 [8]: 0.93 µM

O=C1NC(=O)C(c2cn(CCCn3ccnc3)c3ccccc23)=C1c1ccccc1
IC50 [8]: 1.98 µM

O=C1NC(=O)C(c2cn(CCCn3ccnc3)c3ccccc23)=C1c1cc[nH]c1
IC50 [8]: 1.58 µM

O=C1NC(=O)C(c2cn(CCCn3ccnc3)c3ccccc23)=C1c1cccc2ccccc12
IC50 [8]: 3.05 µM

Cn1cc(C2=C(c3cn(CCCn4ccnc4)c4ccccc34)C(=O)NC2=O)c2ccccc21
IC50 [8]: 1.48 µM

Cn1nc(C2=C(c3cn(CCCn4ccnc4)c4cc(Cl)ccc34)C(=O)NC2=O)c2cccnc21
IC50 (Hexokinase-4): > 20 µM | IC50 [1]: > 20 µM | IC50 [2]: 0.307 µM | inhibition [10]: Dose-dependent effect | IC50 [3]: 0.423 µM | IC50 [5]: > 20 µM | IC50 [6]: > 20 µM | IC50 [7]: > 20 µM | IC50 [8]: 0.14 µM

Cn1nc(C2=C(c3cn(CCCCn4ccnc4)c4ccccc34)C(=O)NC2=O)c2cccnc21
IC50 (Hexokinase-4): > 20 µM | IC50 [1]: > 20 µM | IC50 [2]: 0.311 µM | IC50 [3]: 0.415 µM | inhibition [4]: inactive | IC50 [5]: > 20 µM | IC50 [6]: > 20 µM | IC50 [7]: > 20 µM | IC50 [8]: 0.1 µM

Cn1cc(C2=C(c3nn(CCCn4cncn4)c4ncccc34)C(=O)NC2=O)c2ccccc21
inhibition [9]: 20.6%

O=C1NC(=O)C(n2cnc3ccccc32)=C1c1cn(CCCn2ccnc2)c2ccccc12
IC50 [8]: 7.91 µM
